Read-outs that look alike come from different tables or passages of the source.
Tests used:
[1] = target: T1, human SR-A on CHO-SRA cells (Homo sapiens, UniProt P21757); test: Cell competition assay with 125I-imaging agent 2, CHO-SRA cells; conditions: competition for binding of 125I imaging agent 2, CHO-SRA cells, n=3; read-out: Mean IC50 (one site competition)
T1 construct: expressed in transfected cells; host or cells: CHO (hamster ovary) cells, line CHO-SRA
T1 sequence (P21757 1-451): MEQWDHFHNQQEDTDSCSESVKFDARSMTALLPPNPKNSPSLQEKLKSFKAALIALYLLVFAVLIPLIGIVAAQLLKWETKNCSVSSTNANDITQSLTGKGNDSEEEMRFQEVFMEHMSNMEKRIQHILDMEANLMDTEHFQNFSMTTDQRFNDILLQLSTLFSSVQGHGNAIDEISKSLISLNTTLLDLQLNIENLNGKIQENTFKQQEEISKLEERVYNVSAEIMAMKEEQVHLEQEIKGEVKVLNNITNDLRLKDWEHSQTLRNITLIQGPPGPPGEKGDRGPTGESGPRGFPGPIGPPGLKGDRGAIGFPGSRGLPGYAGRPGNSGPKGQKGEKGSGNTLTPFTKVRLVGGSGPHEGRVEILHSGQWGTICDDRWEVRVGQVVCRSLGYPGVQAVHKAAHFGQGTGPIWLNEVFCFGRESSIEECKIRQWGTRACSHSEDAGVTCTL
Description: (§1) Experiments were carried out in THP-1 and CHO-SRA cells to assess competition for binding of ^125I imaging agent 2 by acLDL, oxLDL and non-radioactive imaging agent 2.
CHO-SRA cells are adherent hamster ovary cells expressing human SR-A and were cultured in Hams F-12 medium containing penicillin/streptomycin, 2 mM glutamine, HEPES buffer (7 ml per 500 ml media), 3% filter-sterilised lipoprotein-deficient serum (LPDS; Sigma cat. no. S5394), 40 μM compactin/mevastatin (Sigma cat. no. M2537), 250 μM mevalonic acid lactone (Sigma cat. no. M4667), and 3 μg/ml acetylated LDL (AcLDL; Biogenesis, Cat no. 5685-3404). For assays with ^125I-acLDL, cells were seeded at 1×10^5 cells/well/ml in 24 well plates 24 hours prior to assay. For assays with ^125I imaging agent 2, CHO-SRA cells were seeded at 1.5×10^5 cells/well/ml in 24 well plates 24 hours prior to assay.

MSRA on THP-1 cells = target: T2, MSRA on THP-1 cells (Homo sapiens, UniProt P21757); test: Cell competition assay with 125I-imaging agent 2, THP-1 cells; conditions: competition for binding of 125I imaging agent 2, THP-1 cells, n=3
T2 construct: Cells became adherent and expressed MSRA; endogenous in cells; host or cells: THP-1 (ECACC), differentiated with PMA
T2 sequence (P21757 1-451): T1 sequence (P21757 1-451)
Description: Experiments were carried out on THP-1 cells. THP-1 cells (human monocyte ECACC) are suspension cells and were cultured in RPMI-1640 medium (Sigma, Cat no. R0883) containing penicillin/streptomycin (Sigma, Cat no. P4458), 2 mM glutamine (Sigma, Cat no. G7513) and 10% foetal bovine serum (FBS; Sigma, Cat no. F-7524). Cells were routinely passaged at 2×10^5 cells/ml in 162 cm^2 flasks. For assays with ^125I-acLDL, cells were seeded at 1×10^5 cells/well/ml in 24 well plates 4-6 days prior to assay and 400 ng/ml phorbol myristate acetate (PMA) added to differentiate THP-1 cells. Cells became adherent and expressed MSRA. For assays with ^125I imaging agent 2, THP-1 cells were seeded at 1.5×10^5 cells/well/ml in 24 well plates 4-6 days prior to assay with 400 ng/ml PMA.
as §1
THP-1 cells were cultured as described in Example 13 above.

- IC50 [1]: 30 ± 12 µM
- IC50 (MSRA on THP-1 cells; read-out: Mean IC50 (two site kinetics, first value)): 0.079 ± 0.02 µM
- IC50 (MSRA on THP-1 cells; read-out: Mean IC50 (two site kinetics, second value)): 14.5 ± 5.8 µM
SMILES: O=C(Nc1ccc(I)cc1)c1cc(Br)ccc1NS(=O)(=O)c1ccc(Cl)cc1 [non-radioactive imaging agent 2]

From patent publication US20060239915A1, “Labeled macrophage scavenger receptor antagonists for imaging cardiovascular diseases” (priority 2002, published 2006)
